In ChEMBL document CHEMBL1143024, “Clavaminols A-F, novel cytotoxic 2-amino-3-alkanols from the ascidian Clavelina phlegraea” (Bioorg Med Chem, 2007) one finds Activity and IC50 data, which are given here for three compounds.

For orientation: IC50 means the concentration at which inhibition is half-maximal.

One experiment concerns AGS. Kind of experiment: Cytotoxicity against human AGS cells after 24 hrs by calcein uptake assay. It counts as functional, cell-based.
The next experiment relates to T47D. Briefly: Cytotoxicity against human T47D cells after 24 hrs by calcein uptake assay. The experiment is classed as functional, cell-based.
The next experiment concerns A549. Briefly: Cytotoxicity against human A549 cells after 24 hrs by calcein uptake assay. It counts as functional, cell-based.
Experiment [1] deals with Jurkat. Kind of experiment: Cell cycle arrest in human Jurkat cells assessed as accumulation at G1/S phase at 10 ug/mL after 18 hrs […]. The experiment is classed as functional, cell-based.
Experiment [2] has as its system Jurkat. Briefly: Induction of apoptosis in human Jurkat cells assessed as increase in hypodiploid cells at 10 ug/mL after 18 hrs by TUNEL method. The experiment is classed as functional.

Values after ≈ are worked out from the molar mass of the structure shown. Active and inactive are the calls of the source. The rule behind the calls is not given here.

Consider `CCCCCCCCC[C@H](O)[C@@H](C)NC(C)=O`, for which the outcome in the experiment with AGS was inactive.
On to `CCCCCCCCC[C@H](OC(C)=O)[C@@H](C)N`, for which the result with AGS was inactive.
On to `CCCCCCCCC[C@H](O)[C@@H](C)N` [CLAVAMINOL A], for which, in the experiment with AGS, the concentration for half-maximal inhibition (IC50) is 5 µg/mL (≈ 24.8 µM). The result with T47D, in the experiment on A549 and in the experiment with Jurkat [1] was Active. For the same compound, the Activity with Jurkat [2] was determined as 44.6%.
